From PubChem BioAssay AID720669 (NMMLSC, 2013)
Activity calls are given as the source filed them.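 Rule for the calls: active = visibly stopped the calcineurin reporter band on a blot from moving down to a smaller size, judged by eye; inactive = reporter band movement visibly unaltered.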

Each molecule was assayed on calcineurin (human, NFAT-based CaNAR1 reporter dephosphorylation) (assay: inhibitors of CaNAR1 reporter dephosphorylation – TALL-104 cells, western blot, CherryPick01, mechanism study for lytic granule exocytosis inhibitor project (AID 720669)). Details: CaNAR1 dephosphorylation shift, at 12 µM, stronger effect = higher value.

| SMILES | inhibition |
| --- | --- |
| Cc1ccc(Nc2nc(NCc3ccco3)c3ccccc3n2)cc1 | 0% (inactive) |
| CCCCC[C@@H](C)N1C[C@@H](COCc2ccccc2)Oc2cc(N3CC[C@@H](N(C)C)C3)ccc2S1(=O)=O | 0% (inactive) |
| CCCCC[C@@H](C)N1C[C@H](COCc2ccccc2)Oc2cc(N3CC[C@@H](N(C)C)C3)ccc2S1(=O)=O | 0% (inactive) |
| CCN(CC)CCCNc1ccc(-c2nnc(-c3ccc(OCC(C)C)cc3)o2)cn1 | 0% (inactive) |
| COc1ccc(-c2cc(NC=O)c3ncc(-c4ccccc4)n3c2)cc1OC | 0% (inactive) |
| Cc1ccc(S(=O)(=O)n2ccc3c(OCCOCCNCc4ccc(F)cc4)cccc32)cc1 | 0% (inactive) |
| CC(C)(c1ccccc1)c1ccc(OCC(O)CNC2CCN(Cc3ccccc3)CC2)cc1 (configuration not stated) | 0% (inactive) |
| CCCCC[C@@H](C)N1C[C@@H](COCc2ccccc2)Oc2cc(N3CC[C@H](N(C)C)C3)ccc2S1(=O)=O | 0% (inactive) |
| O=C(CN1C(=O)/C(=C\c2cccc(Br)c2)Oc2ccccc21)NCCCN1CCOCC1 | 0% (inactive) |
| O=CNc1cc(-c2ccsc2)cn2c(-c3ccccc3)cnc12 | 0% (inactive) |
| CC1=NOC(=O)/C1=C/c1ccc(-c2ccc(Cl)cc2)o1 | 0% (inactive) |
| COc1ccc(-c2cc(NC=O)c3ncc(-c4cccc(OC)c4)n3c2)cc1 | 0% (inactive) |

The remaining lines, values ahead:

| inhibition | SMILES |
| --- | --- |
| 0% (inactive) | O=C(Cn1sc2ccccc2c1=O)NC12CC3CC(CC(C3)C1)C2 |
| 0% (inactive) | O=c1c2ccc(F)cc2sn1-c1ccccc1 |
| 0% (inactive) | COc1ccccc1CNc1nc(NCc2ccc(C(C)C)cc2)c2sccc2n1 |
| 0% (inactive) | COc1ccc(N2C(=O)CC(Sc3nnc(-c4ccccc4)o3)C2=O)cc1 (configuration not stated) |
| 0% (inactive) | O=c1c2ccccc2sn1-c1ccccc1 |
| 0% (inactive) | COc1ccc(-n2sc3ccccc3c2=O)cc1 |
| 100% | CC1COCC(C)N1C1=C(Cl)C(=O)c2ccccc2C1=O (configuration not stated) |
| 0% (inactive) | COC(=O)c1c(NC(=O)c2nc3ccccc3s2)sc2c1CC(C)(C)NC2(C)C |
| 0% (inactive) | CN(C)CCNC(=O)c1ccc(-c2cn3c(-c4ccc(Oc5ccccc5)cc4)cnc3cn2)cc1 |
| 0% (inactive) | O=C(Cn1sc2ccccc2c1=O)Nc1ccc(F)cc1 |
